The text below walks through data of patent US20250170248A1, “SMARCA DEGRADERS AND USES THEREOF” (Kymera Therapeutics, Inc., priority 2021, published 2025).

Common to all, as to type: cell-based
Test [1] deals with T1, SMARCA2 (Homo sapiens, UniProt P51531). Description: MSD SMARCA2 degradation in A549 cell line. The conditions noted are these: for SMARCA2 MSD A549 degradation 24 h: Average Dmax % / DC50: A549 cells; for DC50 / Dmax: 24 h; for DC50: read-out: SMARCA2 MSD A549 degradation 24 h: Average external-Abs DC50; for Dmax: A549, A549 cells. Summed up:
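SMARCA2 protein remaining after 24 h exposure of A549 cells (top concentration 1000 nM, 3-fold dilutions) was measured by MSD electrochemiluminescence immunoassay of cell lysates. Results are given as binned DC50 and maximal degradation (Dmax) codes.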

Test [2] addresses T1, SMARCA2. Description: SMARCA2 Western blot degradation in MV4-11 cells. On the set-up: SMARCA2/SMARCA4 protein degradation selectivity in MV4-11 cells; endogenous in cells; host or cells: MV4-11. The conditions noted are these: for SMARCA2 MSD MV411 degradation 24 h: average Dmax % / DC50 / Selectivity in MV411: MV4-11 cells; for SMARCA2 MSD MV411 degradation 24 h: average Dmax % / DC50 / Dmax: 24 h; for DC50: read-out: SMARCA2 MSD MV411 degradation 24 h: Mean external-Abs DC50; for Selectivity in MV411: SMARCA2/4 selectivity; for Dmax: MV4-11, MV4-11 cells, read-out: SMARCA2 MSD MV411 degradation 24 h: average Dmax %. For orientation: Immunoblotting shows a protein as a band on a membrane.

Test [3] concerns the target T2, SMARCA4 (Homo sapiens, UniProt P51532).
T2 construct: SMARCA2/SMARCA4 protein degradation selectivity in MV4-11 cells; endogenous in cells; host or cells: MV4-11
As to the kind of experiment: SMARCA4 Western blot degradation in MV4-11 cells. The settings on record: for SMARCA4 MSD MV411 degradation 24 h: average Dmax % / DC50: MV4-11 cells; for DC50 / Dmax: 24 h; for DC50: read-out: SMARCA4 MSD MV411 degradation 24 h: Mean external-Abs DC50; for Dmax: MV4-11, MV4-11 cells, read-out: SMARCA4 MSD MV411 degradation 24 h: average Dmax %. Summed up:
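Fluorescent LI-COR imaging of Western blots quantified SMARCA2 and SMARCA4 protein remaining in MV4-11 cells after 24 h of compound treatment. β-actin was the loading control, and DC50, Dmax and SMARCA2/4 selectivity are given as letter-coded ranges.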

A word on the DC50: it is the concentration at which degradation of the target reaches its halfway point. What is called Dmax is the greatest extent of degradation seen.

T2 sequence (P51532 whole entry): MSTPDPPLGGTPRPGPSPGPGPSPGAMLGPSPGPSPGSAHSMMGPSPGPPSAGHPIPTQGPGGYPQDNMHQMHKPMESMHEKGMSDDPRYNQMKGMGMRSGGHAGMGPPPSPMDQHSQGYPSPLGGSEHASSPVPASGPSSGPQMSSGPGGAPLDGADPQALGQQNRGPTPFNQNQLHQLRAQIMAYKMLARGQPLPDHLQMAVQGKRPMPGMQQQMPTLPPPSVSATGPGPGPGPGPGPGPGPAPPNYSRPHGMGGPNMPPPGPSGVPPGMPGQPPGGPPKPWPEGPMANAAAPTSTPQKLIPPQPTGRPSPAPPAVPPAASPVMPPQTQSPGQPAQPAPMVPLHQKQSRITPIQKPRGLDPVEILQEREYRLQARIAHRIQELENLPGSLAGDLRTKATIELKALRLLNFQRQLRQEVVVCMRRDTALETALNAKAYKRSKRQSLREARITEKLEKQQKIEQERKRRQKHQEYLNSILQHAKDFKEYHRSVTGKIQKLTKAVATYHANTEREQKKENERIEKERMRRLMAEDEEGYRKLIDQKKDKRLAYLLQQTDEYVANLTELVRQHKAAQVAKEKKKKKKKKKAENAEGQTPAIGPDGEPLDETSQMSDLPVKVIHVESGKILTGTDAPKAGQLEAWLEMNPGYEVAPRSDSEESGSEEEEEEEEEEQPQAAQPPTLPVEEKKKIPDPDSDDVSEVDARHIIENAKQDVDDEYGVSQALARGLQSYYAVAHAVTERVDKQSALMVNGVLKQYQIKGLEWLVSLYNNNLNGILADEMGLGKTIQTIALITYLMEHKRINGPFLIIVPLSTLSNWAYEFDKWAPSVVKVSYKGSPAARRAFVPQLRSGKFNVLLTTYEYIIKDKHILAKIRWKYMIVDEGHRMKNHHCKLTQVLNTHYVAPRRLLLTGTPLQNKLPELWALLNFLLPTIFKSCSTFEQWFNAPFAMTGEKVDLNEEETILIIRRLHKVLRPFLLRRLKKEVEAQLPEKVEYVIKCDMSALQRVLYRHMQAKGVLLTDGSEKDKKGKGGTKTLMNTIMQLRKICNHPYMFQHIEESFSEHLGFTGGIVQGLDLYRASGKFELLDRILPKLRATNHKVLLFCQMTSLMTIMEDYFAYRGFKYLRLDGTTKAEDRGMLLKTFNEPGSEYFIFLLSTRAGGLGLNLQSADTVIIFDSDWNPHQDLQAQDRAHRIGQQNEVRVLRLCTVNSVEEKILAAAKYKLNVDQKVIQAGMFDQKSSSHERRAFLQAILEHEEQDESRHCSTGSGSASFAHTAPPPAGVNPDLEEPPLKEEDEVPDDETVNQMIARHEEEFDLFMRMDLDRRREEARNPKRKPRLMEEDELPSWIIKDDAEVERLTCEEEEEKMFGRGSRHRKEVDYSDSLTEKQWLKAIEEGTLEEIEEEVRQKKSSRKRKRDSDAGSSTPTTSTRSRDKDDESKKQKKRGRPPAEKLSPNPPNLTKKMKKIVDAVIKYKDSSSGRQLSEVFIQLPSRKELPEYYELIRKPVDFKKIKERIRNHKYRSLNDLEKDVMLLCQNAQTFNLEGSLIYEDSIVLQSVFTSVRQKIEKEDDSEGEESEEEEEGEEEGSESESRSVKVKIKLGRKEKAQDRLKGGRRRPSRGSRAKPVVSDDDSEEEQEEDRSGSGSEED
T1 sequence (P51531 whole entry): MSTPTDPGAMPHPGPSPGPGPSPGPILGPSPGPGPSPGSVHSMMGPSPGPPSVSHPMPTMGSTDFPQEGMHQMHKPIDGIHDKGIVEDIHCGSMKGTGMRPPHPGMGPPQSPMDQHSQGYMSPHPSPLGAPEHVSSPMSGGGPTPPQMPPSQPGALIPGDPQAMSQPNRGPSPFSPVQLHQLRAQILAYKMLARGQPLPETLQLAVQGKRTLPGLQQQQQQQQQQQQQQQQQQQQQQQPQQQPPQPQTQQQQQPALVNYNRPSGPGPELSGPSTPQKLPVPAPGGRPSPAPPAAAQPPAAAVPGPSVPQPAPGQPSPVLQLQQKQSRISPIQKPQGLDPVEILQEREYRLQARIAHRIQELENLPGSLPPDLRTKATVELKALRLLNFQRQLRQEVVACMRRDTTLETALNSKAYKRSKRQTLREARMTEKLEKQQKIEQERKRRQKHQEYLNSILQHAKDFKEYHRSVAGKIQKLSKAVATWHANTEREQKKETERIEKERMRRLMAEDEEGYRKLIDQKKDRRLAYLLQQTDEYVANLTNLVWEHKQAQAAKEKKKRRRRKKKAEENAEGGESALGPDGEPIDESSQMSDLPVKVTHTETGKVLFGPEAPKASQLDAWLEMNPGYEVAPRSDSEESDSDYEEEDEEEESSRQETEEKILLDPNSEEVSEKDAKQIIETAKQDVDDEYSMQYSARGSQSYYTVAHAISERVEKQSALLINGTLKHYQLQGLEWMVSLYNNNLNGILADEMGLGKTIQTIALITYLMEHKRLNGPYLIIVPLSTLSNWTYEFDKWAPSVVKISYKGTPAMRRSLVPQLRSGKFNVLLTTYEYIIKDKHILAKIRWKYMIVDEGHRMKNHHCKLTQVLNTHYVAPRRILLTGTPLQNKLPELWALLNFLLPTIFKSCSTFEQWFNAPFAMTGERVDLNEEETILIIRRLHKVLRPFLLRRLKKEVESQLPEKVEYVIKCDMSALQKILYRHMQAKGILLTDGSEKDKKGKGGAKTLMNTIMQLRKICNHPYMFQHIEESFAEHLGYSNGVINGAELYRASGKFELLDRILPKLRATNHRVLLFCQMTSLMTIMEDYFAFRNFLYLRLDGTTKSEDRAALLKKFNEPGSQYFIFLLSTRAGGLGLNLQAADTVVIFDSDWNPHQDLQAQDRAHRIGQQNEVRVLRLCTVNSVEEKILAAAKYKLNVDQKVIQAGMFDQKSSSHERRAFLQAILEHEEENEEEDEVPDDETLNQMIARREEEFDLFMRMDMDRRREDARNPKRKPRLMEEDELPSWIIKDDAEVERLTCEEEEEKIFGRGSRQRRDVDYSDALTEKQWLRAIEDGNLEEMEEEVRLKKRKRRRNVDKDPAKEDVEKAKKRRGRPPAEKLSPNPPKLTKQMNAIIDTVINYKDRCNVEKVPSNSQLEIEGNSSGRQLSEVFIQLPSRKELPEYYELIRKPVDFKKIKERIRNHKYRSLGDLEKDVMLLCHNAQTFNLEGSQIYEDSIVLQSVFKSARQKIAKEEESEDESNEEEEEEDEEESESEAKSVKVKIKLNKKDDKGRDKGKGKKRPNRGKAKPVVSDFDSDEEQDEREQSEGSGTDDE

In the case of `C#Cc1ccc(CNC(=O)[C@@H]2C[C@@H](O)CN2C(=O)[C@@H](NC(=O)[C@H]2CCC3(CC2)C[C@H](N2CCN(c4cnc(N5CCN6c7cc(-c8ccccc8O)nnc7NC[C@H]6C5)nc4)CC2)C3)C(C)(C)C)cc1` (single isomer, unassigned) [I-170], in test [1], the “SMARCA2 MSD A549 degradation 24 h: Average Dmax %” value is recorded as “A (A (>90% degradation))” and the DC50 is 10 to 50 nM. In addition, in test [2], the “SMARCA2 MSD MV411 degradation 24 h: average Dmax %” value was “B (B (>70-90% degradation))”, the DC50 is 1 to 10 nM and the “Selectivity in MV411” value is “C (C (10-100 fold))”. Further, in test [3], the “SMARCA4 MSD MV411 degradation 24 h: average Dmax %” value was “C (C (50-70% degradation))” and the DC50 is more than 100 nM.
As to `C#Cc1ccc([C@@H](CO)NC(=O)[C@@H]2C[C@@H](O)CN2C(=O)[C@@H](NC(=O)N2CC3(CC(N4CCC(c5cnc(N6CCc7[nH]c8nnc(-c9ccccc9O)cc8c7[C@H]6C)nc5)CC4)C3)C2)C(C)(C)C)nc1` [I-305], in test [1], the maximal degradation (Dmax) was 50 to 70% and the DC50 was more than 100 nM. In test [2], the Dmax was 50 to 70%, the DC50 is more than 100 nM and the “Selectivity in MV411” value was “D (D (<10 fold))”. In addition, in test [3], the Dmax was less than 50% and the DC50 was more than 100 nM.
For the compound `C#Cc1ccc(CNC(=O)[C@@H]2C[C@@H](O)CN2C(=O)[C@H](NC(=O)N2CC3(CC(N4CCC(c5cnc(N6CCc7[nH]c8nnc(-c9ccccc9O)cc8c7[C@H]6C)nc5)CC4)C3)C2)C(C)(C)CCN2CCN[C@@H](C(=O)O)C2)cc1` [I-341], in test [1], the Dmax was less than 50% and the DC50 was more than 100 nM. Further, in test [2], the Dmax was less than 50%, the DC50 is more than 100 nM and the “Selectivity in MV411” value is on record as “C (C (10-100 fold))”. In test [3], the Dmax was less than 50% and the DC50 was more than 100 nM.
Take `C#Cc1ccc(CNC(=O)[C@@H]2C[C@@H](O)CN2C(=O)[C@@H](NC(=O)[C@H]2CC3(C2)C[C@H](N2CCC(N4CCC(N5CCN6c7cc(-c8ccccc8O)nnc7NC[C@H]6C5)CC4)CC2)C3)C(C)(C)C)c(Cl)c1` (single isomer, unassigned) [I-229]: in test [1], the Dmax is more than 90% and the DC50 was more than 100 nM. Also, in test [2], the greatest degradation seen (Dmax) lay in the range of 70 to 90%, the DC50 is 10 to 100 nM and the “Selectivity in MV411” value is recorded as “B (B (>100-500 fold))”. Moreover, in test [3], the Dmax was in the range of 50 to 70% and the DC50 is more than 100 nM.
In the case of `Cc1ncsc1-c1ccc(CNC(=O)[C@@H]2C[C@@H](O)CN2C(=O)C(c2cc(N3CCC(CCN4CCC(c5cnc(N6CCc7[nH]c8nnc(-c9ccccc9O)cc8c7[C@@H]6C)nc5)CC4)CC3)no2)C(C)C)cc1` (single isomer, unassigned) [I-8], in test [1], the Dmax is more than 90% and the DC50 lay in the range of 10 to 50 nM. Moreover, in test [2], the Dmax lay within 70 to 90%, the DC50 lay in the range of 1 to 10 nM and the “Selectivity in MV411” value is reported as “D (D (<10 fold))”. Besides, in test [3], the Dmax lay within 70 to 90% and the DC50 is 10 to 100 nM.
Consider `C#Cc1ccc(CNC(=O)[C@@H]2C[C@@H](O)CN2C(=O)[C@@H](NC(=O)[C@H]2CCC3(CC2)C[C@H](N2CCC(N4CCC(N5CCN6c7cc(-c8ccccc8O)nnc7NC[C@H]6C5)CC4)CC2)C3)C(C)(C)C)c(Cl)c1` (stereo partly shown) [I-222], for which, in test [1], the “SMARCA2 MSD A549 degradation 24 h: Average Dmax %” value is given as “A (A (>90% degradation))” and the DC50 was more than 100 nM. In addition, in test [2], the “SMARCA2 MSD MV411 degradation 24 h: average Dmax %” value is on record as “B (B (>70-90% degradation))”, the DC50 lay within 10 to 100 nM and the “Selectivity in MV411” value is “B (B (>100-500 fold))”. Moreover, in test [3], the “SMARCA4 MSD MV411 degradation 24 h: average Dmax %” value is “D (D (<50% degradation))” and the DC50 is more than 100 nM.
Regarding `CC#Cc1ccc(CNC(=O)[C@@H]2C[C@@H](O)CN2C(=O)[C@@H](NC(=O)N2CC3(CC(N4CCC(c5cnc(N6CCc7[nH]c8nnc(-c9ccccc9O)cc8c7[C@H]6C)nc5)CC4)C3)C2)C(C)(C)C)c(OC)c1` [I-271], the Dmax in test [1] is more than 90%; in test [2], 70 to 90%; in test [3], less than 50%. The DC50 in test [1] is 50 to 100 nM; in test [2] it was 10 to 100 nM; in test [3], more than 100 nM. Also, the “Selectivity in MV411” value in test [2] was “C (C (10-100 fold))”.
In the case of `C#Cc1ccc([C@H](C)NC(=O)[C@@H]2C[C@@H](O)CN2C(=O)C(c2cc(N3CC4(CC(N5CCC(N6CCC(N7CCN8c9cc(-c%10ccccc%10O)nnc9NC[C@H]8C7)CC6)CC5)C4)C3)no2)C(C)C)cc1` (stereo partly shown) [I-332], in test [1], the Dmax was more than 90% and the half-maximal degradation concentration (DC50) was less than 10 nM. In addition, in test [2], the Dmax was more than 90%, the DC50 was less than 1 nM and the “Selectivity in MV411” value was “C (C (10-100 fold))”. Further, in test [3], the Dmax is more than 90% and the DC50 is 1 to 10 nM.
For `Cc1ncsc1-c1ccc(CNC(=O)[C@@H]2C[C@@H](O)CN2C(=O)[C@@H](NC(=O)[C@H]2CC3(CC[C@H](N4CCN(c5ccnc(N6CCc7[nH]c8nnc(-c9ccccc9O)cc8c7[C@H]6C)n5)CC4)CC3)C2)C(C)(C)C)cc1` (single isomer, unassigned) [I-81], in test [1], the “SMARCA2 MSD A549 degradation 24 h: Average Dmax %” value is “A (A (>90% degradation))” and the DC50 is 10 to 50 nM. In test [2], the “SMARCA2 MSD MV411 degradation 24 h: average Dmax %” value is given as “A (A (>90% degradation))”, the DC50 was 1 to 10 nM and the “Selectivity in MV411” value is reported as “C (C (10-100 fold))”. Further, in test [3], the “SMARCA4 MSD MV411 degradation 24 h: average Dmax %” value is given as “B (B (>70-90% degradation))” and the DC50 lay in the range of 10 to 100 nM.
On to `C#Cc1ccc2c(c1)OCC[C@@H]2NC(=O)[C@@H]1C[C@@H](O)CN1C(=O)[C@@H](NC(=O)N1CC2(CC(N3CCC(c4cnc(N5CCc6[nH]c7nnc(-c8ccccc8O)cc7c6[C@H]5C)nc4)CC3)C2)C1)C(C)(C)C` (single isomer, unassigned) [I-235], for which the Dmax was 50 to 70% in test [1], less than 50% in test [2] and less than 50% in test [3]. In addition, the DC50 in test [1], in test [2] and in test [3] was more than 100 nM throughout. Moreover, in test [2], the “Selectivity in MV411” value is recorded as “D (D (<10 fold))”.
In the case of `C#Cc1ccc([C@H](CO)NC(=O)[C@@H]2C[C@@H](O)CN2C(=O)[C@@H](NC(=O)N2CC3(CC(N4CCC(c5cnc(N6CCc7[nH]c8nnc(-c9ccccc9O)cc8c7[C@H]6C)nc5)CC4)C3)C2)C(C)(C)C)nc1` (single isomer, unassigned) [I-304], in test [1], the Dmax was more than 90% and the DC50 is 50 to 100 nM. In test [2], the Dmax lay in the range of 70 to 90%, the DC50 was 1 to 10 nM and the “Selectivity in MV411” value was “B (B (>100-500 fold))”. In test [3], the Dmax is less than 50% and the DC50 was more than 100 nM.
In the case of `C#Cc1cc(F)c(CNC(=O)[C@@H]2C[C@@H](O)CN2C(=O)[C@@H](NC(=O)N2CC3(CC(N4CCC(c5cnc(N6CCc7[nH]c8nnc(-c9ccccc9O)cc8c7[C@H]6C)nc5)CC4)C3)C2)C(C)(C)C)cc1F` [I-403], the Dmax was more than 90% in test [1], 70 to 90% in test [2] and 70 to 90% in test [3]. The DC50 is 10 to 50 nM in test [1], 10 to 100 nM in test [2] and more than 100 nM in test [3]. For the same compound, the “Selectivity in MV411” value in test [2] is recorded as “C (C (10-100 fold))”.
In the case of `Cc1ncsc1-c1ccc(CNC(=O)[C@@H]2C[C@@H](O)CN2C(=O)[C@@H](NC(=O)[C@H]2CC[C@H](c3ccc(-c4cnc(N5CCN6c7cc(-c8ccccc8O)nnc7NC[C@H]6C5)nc4)cc3)CC2)C(C)(C)C)cc1` [I-85], in test [1], the Dmax was more than 90% and the DC50 lay in the range of 50 to 100 nM. In test [2], the Dmax was in the range of 70 to 90%, the DC50 was 10 to 100 nM and the “Selectivity in MV411” value is recorded as “C (C (10-100 fold))”. In test [3], the Dmax was less than 50% and the DC50 was more than 100 nM.
